According to ChEMBL document CHEMBL1909046, “DrugMatrix in vitro pharmacology data”:
pIC50: −log10 of the molar value.

Columns and labels:
[1] = biological target: Glycine receptor (Rattus norvegicus, UniProt P22771+P24524+P07727+P20781); assay type: cell membranes, Wistar, Spinal cord, Membrane; note: in other assays of this panel Not Active means under 50% inhibition at 10 µM
[2] = DRUGMATRIX: Phosphodiesterase PDE4 enzyme inhibition (substrate: [3H]cAMP + cAMP); conditions: u-937; Not Active = under 50% inhibition at 10 µM
[3] = biological target: T1, Angiotensin-converting enzyme (Oryctolagus cuniculus, UniProt P12822); assay: biochemical; assay type: tissue-based, Lung;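 note: enzymatic inhibition of angiotensin-converting enzyme measured with FAPGG as the substrate; in other assays of this panel Not Active means under 50% inhibition at 10 µM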
T1 sequence (P12822 whole entry): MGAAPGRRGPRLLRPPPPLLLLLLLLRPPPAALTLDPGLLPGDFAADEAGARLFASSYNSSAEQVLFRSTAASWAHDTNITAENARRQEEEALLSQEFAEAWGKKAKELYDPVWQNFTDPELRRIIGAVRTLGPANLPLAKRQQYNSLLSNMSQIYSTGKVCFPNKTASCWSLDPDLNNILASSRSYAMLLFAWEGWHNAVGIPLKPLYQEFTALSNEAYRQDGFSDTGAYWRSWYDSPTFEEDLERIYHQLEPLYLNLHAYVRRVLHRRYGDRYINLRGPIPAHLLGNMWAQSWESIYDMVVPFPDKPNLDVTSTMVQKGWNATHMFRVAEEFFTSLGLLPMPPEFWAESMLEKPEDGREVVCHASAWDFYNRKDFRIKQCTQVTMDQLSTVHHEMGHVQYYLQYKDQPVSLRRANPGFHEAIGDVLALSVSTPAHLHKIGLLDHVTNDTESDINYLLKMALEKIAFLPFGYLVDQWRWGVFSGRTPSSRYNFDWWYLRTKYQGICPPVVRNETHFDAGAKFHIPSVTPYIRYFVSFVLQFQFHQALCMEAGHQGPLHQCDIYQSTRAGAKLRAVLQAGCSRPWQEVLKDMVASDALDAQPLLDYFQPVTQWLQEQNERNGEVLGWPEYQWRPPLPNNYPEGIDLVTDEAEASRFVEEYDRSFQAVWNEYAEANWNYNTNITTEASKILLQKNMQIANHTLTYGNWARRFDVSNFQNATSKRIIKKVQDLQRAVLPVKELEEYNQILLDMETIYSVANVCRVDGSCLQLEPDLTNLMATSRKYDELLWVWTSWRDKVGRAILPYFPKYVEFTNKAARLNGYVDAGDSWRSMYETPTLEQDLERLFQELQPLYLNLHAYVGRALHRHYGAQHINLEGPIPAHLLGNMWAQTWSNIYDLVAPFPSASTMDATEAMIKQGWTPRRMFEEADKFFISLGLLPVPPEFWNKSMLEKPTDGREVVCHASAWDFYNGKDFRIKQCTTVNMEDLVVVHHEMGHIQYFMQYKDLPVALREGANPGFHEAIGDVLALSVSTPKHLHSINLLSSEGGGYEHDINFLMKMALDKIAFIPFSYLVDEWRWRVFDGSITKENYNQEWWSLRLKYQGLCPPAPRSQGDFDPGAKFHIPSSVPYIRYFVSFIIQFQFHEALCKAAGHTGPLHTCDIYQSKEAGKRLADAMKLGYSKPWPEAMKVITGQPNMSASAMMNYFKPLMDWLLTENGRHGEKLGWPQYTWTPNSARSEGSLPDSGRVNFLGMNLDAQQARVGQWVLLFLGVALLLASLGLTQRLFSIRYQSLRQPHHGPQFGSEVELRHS

[4] = biological target: T2, Interstitial collagenase (Homo sapiens, UniProt P03956); assay: biochemical; assay type: tissue-based, Rheumatoid synovial fibroblasts;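 note: MMP-1 enzyme inhibition assay using a peptide substrate; in other assays of this panel Not Active means under 50% inhibition at 10 µM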
T2 sequence (P03956 whole entry): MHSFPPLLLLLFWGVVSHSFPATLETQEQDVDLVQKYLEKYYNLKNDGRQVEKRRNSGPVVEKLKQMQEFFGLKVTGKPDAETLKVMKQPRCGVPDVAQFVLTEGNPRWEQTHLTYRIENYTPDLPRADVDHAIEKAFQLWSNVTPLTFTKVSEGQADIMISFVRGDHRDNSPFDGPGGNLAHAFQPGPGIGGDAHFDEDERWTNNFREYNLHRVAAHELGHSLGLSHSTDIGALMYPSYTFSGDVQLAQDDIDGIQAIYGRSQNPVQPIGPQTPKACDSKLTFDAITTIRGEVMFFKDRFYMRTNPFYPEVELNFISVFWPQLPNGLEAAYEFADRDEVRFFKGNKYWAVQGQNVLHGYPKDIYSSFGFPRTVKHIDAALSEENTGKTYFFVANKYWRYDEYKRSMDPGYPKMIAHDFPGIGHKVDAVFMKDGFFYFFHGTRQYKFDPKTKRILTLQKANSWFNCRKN

[5] = biological target: T3, Glucocorticoid receptor (Homo sapiens, UniProt P04150); conditions: hela s3; note: in other assays of this panel Not Active means under 50% inhibition at 10 µM
T3 sequence (P04150 whole entry): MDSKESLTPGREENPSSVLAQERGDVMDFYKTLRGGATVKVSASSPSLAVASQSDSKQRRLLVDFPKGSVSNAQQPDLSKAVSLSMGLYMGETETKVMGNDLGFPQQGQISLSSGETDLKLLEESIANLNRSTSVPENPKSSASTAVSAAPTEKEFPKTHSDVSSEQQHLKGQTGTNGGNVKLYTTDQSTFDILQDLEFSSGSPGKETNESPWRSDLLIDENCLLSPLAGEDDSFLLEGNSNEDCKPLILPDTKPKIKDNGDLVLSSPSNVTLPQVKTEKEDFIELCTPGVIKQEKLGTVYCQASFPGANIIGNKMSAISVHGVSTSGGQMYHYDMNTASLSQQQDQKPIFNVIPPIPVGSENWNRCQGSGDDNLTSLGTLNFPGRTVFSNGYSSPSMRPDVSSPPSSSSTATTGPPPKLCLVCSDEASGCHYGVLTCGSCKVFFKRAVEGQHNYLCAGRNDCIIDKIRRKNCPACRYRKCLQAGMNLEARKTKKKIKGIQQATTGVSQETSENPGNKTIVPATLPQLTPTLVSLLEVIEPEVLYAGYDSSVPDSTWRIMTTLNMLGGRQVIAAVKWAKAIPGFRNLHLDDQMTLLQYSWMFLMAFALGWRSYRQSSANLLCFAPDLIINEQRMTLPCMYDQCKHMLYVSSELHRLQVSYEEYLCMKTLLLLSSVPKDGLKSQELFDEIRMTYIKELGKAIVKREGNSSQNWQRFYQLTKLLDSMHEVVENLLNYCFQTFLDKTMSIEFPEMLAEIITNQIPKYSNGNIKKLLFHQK

| Compound | IC50 [1] | IC50 [2] | Ki [2] | pIC50 ([3]; read-out: IC50) | IC50 [4] | IC50 [5] | IC50 [3] |
| --- | --- | --- | --- | --- | --- | --- | --- |
| Cc1c(N)nc([C@H](CC(N)=O)NC[C@H](N)C(N)=O)nc1C(=O)N[C@H](C(=O)N[C@H](C)[C@@H](O)[C@H](C)C(=O)N[C@H](C(=O)NCCc1nc(-c2nc(C(=O)NCCC[S+](C)C)cs2)cs1)[C@@H](C)O)[C@@H](O[C@@H]1O[C@@H](CO)[C@@H](O)[C@H](O)[C@@H]1O[C@H]1O[C@H](CO)[C@@H](O)[C@H](OC(N)=O)[C@@H]1O)c1c[nH]cn1.[Br-] [BLEOMYCIN A2] | Not Active | Not Active | Not Active | 6.23 | Not Active | Not Active | – |
| O=C(O)CNCP(=O)(O)O [GLYPHOSATE] | Not Active | Not Active | Not Active | – | Not Active | Not Active | Not Active |
| OC[C@H]1OC2C3[C@@H](CO)OC(O[C@H]4[C@H](O)[C@@H](O)[C@@H](O[C@H]5[C@H](O)[C@@H](O)[C@@H](O[C@H]6[C@H](O)[C@@H](O)[C@@H](O[C@H]7[C@H](O)[C@@H](O)[C@@H](O[C@H]8[C@H](O)[C@@H](O)[C@@H](O[C@H]9[C@H](O)[C@@H](O)C(OC1[C@H](O)[C@H]2O)O[C@@H]9CO)O[C@@H]8CO)O[C@@H]7CO)O[C@@H]6CO)O[C@@H]5CO)O[C@@H]4CO)[C@H](O)[C@H]3O | Not Active | Not Active | Not Active | – | Not Active | Not Active | Not Active |
| CC(C)Cc1ccc([C@H](C)C(=O)O)cc1 [DEXIBUPROFEN] | Not Active | Not Active | Not Active | – | Not Active | Not Active | Not Active |
| CC(N)Cc1c[nH]c2ccc(OCc3cccs3)cc12 (configuration not stated) [BW-723C86] | Not Active | Not Active | Not Active | – | Not Active | Not Active | Not Active |
| CC(=O)[C@]1(O)Cc2c(O)c3c(c(O)c2[C@@H](O[C@H]2C[C@H](N)[C@H](O)[C@H](C)O2)C1)C(=O)c1ccccc1C3=O [IDARUBICIN] | Not Active | Not Active | Not Active | – | Not Active | Not Active | Not Active |
| NC(=O)NC(=O)Cc1ccccc1 [PHENACEMIDE] | Not Active | Not Active | Not Active | – | Not Active | Not Active | Not Active |
| Nc1ccc(C(=O)O)c(O)c1 [AMINOSALICYLIC ACID] | Not Active | Not Active | Not Active | – | Not Active | Not Active | Not Active |
| Nc1nc(N)c2nc(CNc3ccc(C(=O)N[C@@H](CCC(=O)O)C(=O)O)cc3)cnc2n1 [AMINOPTERIN] | Not Active | Not Active | Not Active | – | Not Active | Not Active | Not Active |
| c1ccc(Cn2ccnc2)cc1 | Not Active | Not Active | Not Active | – | Not Active | Not Active | Not Active |
| CC(C)(C#N)c1cc(Cn2cncn2)cc(C(C)(C)C#N)c1 [ANASTROZOLE] | Not Active | Not Active | Not Active | – | Not Active | Not Active | Not Active |
| COc1cc(/C=C/C(=O)O)ccc1O [FERULATE] | Not Active | Not Active | Not Active | – | Not Active | Not Active | Not Active |
| COc1cc([C@@H]2c3cc4c(cc3[C@H](O)[C@H]3COC(=O)[C@H]23)OCO4)cc(OC)c1OC [PODOFILOX] | Not Active | Not Active | Not Active | – | Not Active | Not Active | Not Active |
| CC1(COc2ccc(CC3SC(=O)NC3=O)cc2)CCCCC1 (configuration not stated) [CIGLITAZONE] | Not Active | Not Active | Not Active | – | Not Active | Not Active | Not Active |
| Oc1ncnc2[nH]ncc12 [ALLOPURINOL] | Not Active | Not Active | Not Active | – | Not Active | Not Active | Not Active |
| Cc1cc(C(C)(C)C)c(O)c(C)c1CC1=NCCN1 [OXYMETAZOLINE] | Not Active | Not Active | Not Active | – | Not Active | Not Active | Not Active |
| CC(C)Cn1cnc2c(N)nc3ccccc3c21 [IMIQUIMOD] | Not Active | Not Active | Not Active | – | Not Active | Not Active | Not Active |
